Series [1] concerns patients with advanced NSCLC following failure of at least one prior chemotherapy regimen. As to the kind of experiment: Open-label Phase II predictive marker identification study of Tarceva monotherapy, response by RECIST and survival. The class given is in vivo, human. As to conditions: all enrolled patients n=264; oral 150 mg/day. How it is done:
The selection of this dose was based on pharmacokinetic parameters, as well as the safety and tolerability profile of this dose observed in Phase I, II and III trials in heavily pre-treated patients with advanced cancer. Drug levels seen in the plasma of patients with cancer receiving the 150 mg/day dose were consistently above the average plasma concentration of 500 ng/ml targeted for clinical efficacy.
This was an open-label, predictive marker identification Phase II study. The study was conducted in approximately 26 sites in about 12 countries. 264 patients with advanced NSCLC following failure of at least one prior chemotherapy regimen were enrolled over a 12 month period. […] Dose reductions were permitted based on tolerability to drug therapy. Clinical and laboratory parameters were assessed to evaluate disease control and toxicity. Treatment continued until disease progression, unacceptable toxicity or death. The study design is depicted in FIG. 1.
The RECIST (Uni-dimensional Tumor Measurement) criteria were used to evaluate response. […]
A regular status check every 3 months was performed either by a patient's visit to the clinic or by telephone. All deaths were recorded. […]

For series [2] the following is noted: patients with cancer, 150 mg/day dose; 500 ng/ml is the average concentration targeted for clinical efficacy; cited from earlier work.

Structures are written as SMILES. A value given as a limit tells only on which side of the number the result lay.

In the case of `C#Cc1cccc(Nc2ncnc3cc(OCCOC)c(OCCOC)cc23)c1` [Erlotinib, erlotinib], in series [1], the Median overall survival is listed as 7.6 (CI 7-9) months and the median progression-free survival is reported as 11.3 (CI 8-12) weeks. In series [2], the “drug level in plasma” value was more than 500 ng/mL.

The values above are taken from patent US20130217712A1, “[…] FOR EGFR INHIBITOR TREATMENT” (Hoffmann-La Roche Inc., priority 2007, published 2013).
